# Values quoted from earlier work in publication PMC8513935.
# Experiments:
# [1] = log P octanol/water from commercial databases, averaged (the ESI); details: Octanol (wet), 25 C
# [2] = experimental, compiled by the authors from the literature (the ESI cites the sources)
# [3] = derived by the authors as gas->solvent minus gas->water (a hypothetical dry solvent; the ESI), not a two-phase measurement
smiles,measurement,setting,value
CCC(C)=O,"log K of transfer, water to solvent",[1],0.29 log10 K
same,"log K of transfer, gas to solvent","[2]; 1,2-Dichloroethane, 25 C",3.64 log10 K
same,"log K of transfer, gas to solvent","[2]; 2-Methylpropan-1-ol, 25 C",2.99 log10 K
same,"log K of transfer, gas to solvent","[2]; 2-Methylpropan-2-ol, 25 C",3.11 log10 K
same,"log K of transfer, gas to solvent","[2]; 3-Methylbutan-1-ol, 25 C",3.01 log10 K
same,"log K of transfer, gas to solvent","[2]; Acetonitrile, 25 C",3.48 log10 K
same,"log K of transfer, gas to solvent","[2]; Benzene, 25 C",3.27 log10 K
same,"log K of transfer, gas to solvent","[2]; Butan-1-ol, 25 C",3.02 log10 K
same,"log K of transfer, gas to solvent","[2]; Butan-2-ol, 25 C",3.05 log10 K
same,"log K of transfer, gas to solvent","[2]; Butanone, 25 C",3.36 log10 K
same,"log K of transfer, gas to solvent","[2]; Butyronitrile, 25 C",3.38 log10 K
same,"log K of transfer, gas to solvent","[2]; CCl4, 25 C",2.99 log10 K
same,"log K of transfer, gas to solvent","[2]; Chlorobenzene, 25 C",3.29 log10 K
same,"log K of transfer, gas to solvent","[2]; Chloroform, 25 C",3.87 log10 K
same,"log K of transfer, gas to solvent","[2]; Cyclohexane, 25 C",2.47 log10 K
same,"log K of transfer, gas to solvent","[2]; Cyclohexanone, 25 C",3.29 log10 K
same,"log K of transfer, gas to solvent","[2]; Di-n-butyl ether, 25 C",2.73 log10 K
same,"log K of transfer, gas to solvent","[2]; Dichloromethane, 25 C",3.86 log10 K
same,"log K of transfer, gas to solvent","[2]; Diethyl Ether, 25 C",3.03 log10 K
same,"log K of transfer, gas to solvent","[2]; Ethanol, 25 C",3.16 log10 K
same,"log K of transfer, gas to solvent","[2]; Hexadecane, 25 C",2.29 log10 K
same,"log K of transfer, gas to solvent","[2]; Hexan-1-ol, 25 C",2.84 log10 K
same,"log K of transfer, gas to solvent","[2]; Hexane, 25 C",2.49 log10 K
same,"log K of transfer, gas to solvent","[2]; Methanol, 25 C",3.34 log10 K
same,"log K of transfer, gas to solvent","[2]; Octan-1-ol, 25 C",2.77 log10 K
same,"log K of transfer, gas to solvent","[2]; Pentan-1-ol, 25 C",2.85 log10 K
same,"log K of transfer, gas to solvent","[2]; Perfluoroalkane, 25 C",1.76 log10 K
same,"log K of transfer, gas to solvent","[2]; Propan-1-ol, 25 C",3.07 log10 K
same,"log K of transfer, gas to solvent","[2]; Propan-2-ol, 25 C",2.99 log10 K
same,"log K of transfer, gas to solvent","[2]; Propanone, 25 C",3.42 log10 K
same,"log K of transfer, gas to solvent","[2]; Tetrahydrofuran, 25 C",3.33 log10 K
same,"log K of transfer, gas to solvent","[2]; Toluene, 25 C",3.13 log10 K
same,"log K of transfer, gas to solvent","[2]; Water, 25 C",2.72 log10 K
same,"log K of transfer, water to solvent","[3]; 1,2-Dichloroethane, 25 C",0.92 log10 K
same,"log K of transfer, water to solvent","[3]; 2-Methylpropan-1-ol, 25 C",0.27 log10 K
same,"log K of transfer, water to solvent","[3]; 2-Methylpropan-2-ol, 25 C",0.39 log10 K
same,"log K of transfer, water to solvent","[3]; 3-Methylbutan-1-ol, 25 C",0.29 log10 K
same,"log K of transfer, water to solvent","[3]; Acetone, 25 C",0.7 log10 K
same,"log K of transfer, water to solvent","[3]; Acetonitrile, 25 C",0.76 log10 K
same,"log K of transfer, water to solvent","[3]; Benzene, 25 C",0.55 log10 K
same,"log K of transfer, water to solvent","[3]; Butan-1-ol, 25 C",0.3 log10 K
same,"log K of transfer, water to solvent","[3]; Butan-2-ol, 25 C",0.33 log10 K
same,"log K of transfer, water to solvent","[3]; Butanone, 25 C",0.64 log10 K
same,"log K of transfer, water to solvent","[3]; Butyronitrile, 25 C",0.66 log10 K
same,"log K of transfer, water to solvent","[3]; CCl4, 25 C",0.27 log10 K
same,"log K of transfer, water to solvent","[3]; Chlorobenzene, 25 C",0.57 log10 K
same,"log K of transfer, water to solvent","[3]; Chloroform, 25 C",1.15 log10 K
same,"log K of transfer, water to solvent","[3]; Cyclohexane, 25 C",-0.246 log10 K
same,"log K of transfer, water to solvent","[3]; Cyclohexanone, 25 C",0.574 log10 K
same,"log K of transfer, water to solvent","[3]; Di-n-butyl ether, 25 C",0.00999 log10 K
same,"log K of transfer, water to solvent","[3]; Dichloromethane, 25 C",1.14 log10 K
same,"log K of transfer, water to solvent","[3]; Diethyl Ether, 25 C",0.31 log10 K
same,"log K of transfer, water to solvent","[3]; Ethanol, 25 C",0.44 log10 K
same,"log K of transfer, water to solvent","[3]; Hexadecane, 25 C",-0.433 log10 K
same,"log K of transfer, water to solvent","[3]; Hexan-1-ol, 25 C",0.122 log10 K
same,"log K of transfer, water to solvent","[3]; Hexane, 25 C",-0.23 log10 K
same,"log K of transfer, water to solvent","[3]; Methanol, 25 C",0.62 log10 K
same,"log K of transfer, water to solvent","[3]; Octan-1-ol(dry), 25 C",0.05 log10 K
same,"log K of transfer, water to solvent","[3]; Pentan-1-ol, 25 C",0.13 log10 K
same,"log K of transfer, water to solvent","[3]; Perfluoroalkane, 25 C",-0.957 log10 K
same,"log K of transfer, water to solvent","[3]; Propan-1-ol, 25 C",0.35 log10 K
same,"log K of transfer, water to solvent","[3]; Propan-2-ol, 25 C",0.27 log10 K
same,"log K of transfer, water to solvent","[3]; Tetrahydrofuran, 25 C",0.61 log10 K
same,"log K of transfer, water to solvent","[3]; Toluene, 25 C",0.41 log10 K
Cc1ccccn1,"log K of transfer, water to solvent",[1],1.12 log10 K
same,"log K of transfer, gas to solvent","[2]; 2-Methylpropan-1-ol, 25 C",4.54 log10 K
same,"log K of transfer, gas to solvent","[2]; 2-Methylpropan-2-ol, 25 C",4.33 log10 K
same,"log K of transfer, gas to solvent","[2]; Benzene, 25 C",4.3 log10 K
same,"log K of transfer, gas to solvent","[2]; Butan-2-ol, 25 C",4.4 log10 K
same,"log K of transfer, gas to solvent","[2]; Chloroform, 25 C",5.12 log10 K
same,"log K of transfer, gas to solvent","[2]; Cyclohexane, 25 C",3.7 log10 K
same,"log K of transfer, gas to solvent","[2]; Hexadecane, 25 C",3.42 log10 K
same,"log K of transfer, gas to solvent","[2]; Propan-2-ol, 25 C",4.31 log10 K
same,"log K of transfer, gas to solvent","[2]; Water, 25 C",3.4 log10 K
same,"log K of transfer, water to solvent","[3]; 2-Methylpropan-1-ol, 25 C",1.14 log10 K
same,"log K of transfer, water to solvent","[3]; 2-Methylpropan-2-ol, 25 C",0.93 log10 K
same,"log K of transfer, water to solvent","[3]; Benzene, 25 C",0.9 log10 K
same,"log K of transfer, water to solvent","[3]; Butan-2-ol, 25 C",0.999 log10 K
same,"log K of transfer, water to solvent","[3]; Chloroform, 25 C",1.72 log10 K
same,"log K of transfer, water to solvent","[3]; Cyclohexane, 25 C",0.3 log10 K
same,"log K of transfer, water to solvent","[3]; Hexadecane, 25 C",0.022 log10 K
same,"log K of transfer, water to solvent","[3]; Propan-2-ol, 25 C",0.91 log10 K
